Calls of active or inactive are those of the source. The calls are words filed in the database; no cut-off is given here.
Key:
[1] = tested on: Rattus norvegicus; assay: Anticonvulsant activity in Rattus norvegicus Wistar (rat) assessed as protection against maximal electroshock-induced seizure at 30 mg/kg, po measured at 0.25 hr; format: functional, organism-based; design: dose 30 mg/kg
[2] = tested on: Mus musculus; assay: Anticonvulsant activity in Mus musculus Swiss albino (mouse) assessed as protection against pentylenetetrazole-induced seizure at 300 mg/kg, ip; format: functional, organism-based; design: dose 300 mg/kg
[3] = tested on: Rattus norvegicus; assay: Anticonvulsant activity in Rattus norvegicus Wistar (rat) assessed as protection against maximal electroshock-induced seizure at 30 mg/kg, po measured at 1 hr; format: functional, organism-based; design: dose 30 mg/kg
[4] = tested on: Rattus norvegicus; assay: Anticonvulsant activity in Rattus norvegicus Wistar (rat) assessed as protection against maximal electroshock-induced seizure at 30 mg/kg, po measured at 4 hr; format: functional, organism-based; design: dose 30 mg/kg
[5] = tested on: Rattus norvegicus; assay: Anticonvulsant activity in Rattus norvegicus Wistar (rat) assessed as protection against maximal electroshock-induced seizure at 30 mg/kg, po measured at 0.5 hr; format: functional, organism-based; design: dose 30 mg/kg
[6] = tested on: Mus musculus; assay: Anticonvulsant activity in Mus musculus Swiss albino (mouse) assessed as protection against strychnine-induced seizure at 300 mg/kg, ip; format: functional, organism-based; design: dose 300 mg/kg
[7] = tested on: Rattus norvegicus; assay: Anticonvulsant activity in Rattus norvegicus Wistar (rat) assessed as protection against maximal electroshock-induced seizure at 30 mg/kg, po measured at 2 hr; format: functional, organism-based; design: dose 30 mg/kg
[8] = tested on: Mus musculus; assay: Anticonvulsant activity in ip dosed Mus musculus Swiss albino (mouse) assessed as protection against maximal electroshock-induced seizure; format: functional
[9] = tested on: Mus musculus; assay: Anticonvulsant activity in ip dosed Mus musculus Swiss albino (mouse) assessed as protection against pentylenetetrazole-induced seizure; format: functional
[10] = tested on: Mus musculus; assay: Neurotoxicity against ip dosed Mus musculus Swiss albino (mouse) at 0.5 hr by rota rod test; format: toxicity, organism-based; conditions: in vivo
[11] = Protection index, ratio TD50 for neurotoxicity to ED50 for protection against maximal electroshock-induced seizure in Mus musculus Swiss albino (mouse); format: toxicity, organism-based; conditions: in vivo, read-out: Ratio TD50/ED50
[12] = tested on: Mus musculus; assay: Anticonvulsant activity in ip dosed Mus musculus Swiss albino (mouse) assessed as protection against maximal electroshock-induced seizure at 0.5 hr; format: functional; conditions: read-out: MED
[13] = tested on: Mus musculus; assay: Anticonvulsant activity in Mus musculus Swiss albino (mouse) assessed as protection against pentylenetetrazole-induced seizure at 300 mg/kg, ip measured at 4 hr; format: functional, organism-based; design: dose 300 mg/kg
[14] = tested on: Mus musculus; assay: Anticonvulsant activity in Mus musculus Swiss albino (mouse) assessed as protection against strychnine-induced seizure at 300 mg/kg, ip measured at 4 hr; format: functional, organism-based; design: dose 300 mg/kg
[15] = tested on: Mus musculus; assay: Neurotoxicity against ip dosed Mus musculus Swiss albino (mouse) at 4 hr by rota rod test; format: toxicity, organism-based; conditions: in vivo
[16] = tested on: Mus musculus; assay: Anticonvulsant activity in Mus musculus Swiss albino (mouse) assessed as protection against strychnine-induced seizure at 300 mg/kg, ip measured at 0.5 hr; format: functional, organism-based; design: dose 300 mg/kg
[17] = Neurotoxicity against ip dosed Mus musculus Swiss albino (mouse) by rota rod test; format: toxicity, organism-based; conditions: in vivo
[18] = tested on: Mus musculus; assay: Anticonvulsant activity in Mus musculus Swiss albino (mouse) assessed as protection against pentylenetetrazole-induced seizure at 300 mg/kg, ip measured at 0.5 hr; format: functional, organism-based; design: dose 300 mg/kg
[19] = tested on: Mus musculus; assay: Anticonvulsant activity in ip dosed Mus musculus Swiss albino (mouse) assessed as protection against maximal electroshock-induced seizure at 4 hr; format: functional; conditions: read-out: MED
[20] = tested on: Mus musculus; assay: Anticonvulsant activity in ip dosed Mus musculus Swiss albino (mouse) assessed as protection against strychnine-induced seizure at 4 hr; format: functional; conditions: read-out: MED
[21] = tested on: Mus musculus; assay: Anticonvulsant activity in ip dosed Mus musculus Swiss albino (mouse) assessed as protection against strychnine-induced seizure at 0.5 hr; format: functional; conditions: read-out: MED
[22] = tested on: Mus musculus; assay: Neurotoxicity against Mus musculus Swiss albino (mouse) at 300 mg/kg, ip measured at 4 hr by rota rod test; format: toxicity, organism-based; design: dose 300 mg/kg, route intraperitoneal; conditions: in vivo
[23] = tested on: Mus musculus; assay: Anticonvulsant activity in ip dosed Mus musculus Swiss albino (mouse) assessed as protection against strychnine-induced seizure; format: functional
[24] = tested on: Mus musculus; assay: Anticonvulsant activity in ip dosed Mus musculus Swiss albino (mouse) assessed as protection against pentylenetetrazole-induced seizure at 0.5 hr; format: functional; conditions: read-out: MED
[25] = tested on: Mus musculus; assay: Neurotoxicity against Mus musculus Swiss albino (mouse) at 300 mg/kg, ip measured at 0.5 hr by rota rod test; format: toxicity, organism-based; design: dose 300 mg/kg, route intraperitoneal; conditions: in vivo
[26] = tested on: Mus musculus; assay: Anticonvulsant activity in ip dosed Mus musculus Swiss albino (mouse) assessed as protection against pentylenetetrazole-induced seizure at 4 hr; format: functional; conditions: read-out: MED

Row | SMILES | Activity [1] | Activity [2] | Activity [3] | Activity [4] | Activity [5] | Activity [6] | Activity [7] | ED50 [8] | MTC [10] | selectivity ratio [11] | minimal effective dose [12] | Activity [13] | Activity [14] | MTC [15] | TD50 [17] | Activity [18] | minimal effective dose [19] | minimal effective dose [20] | minimal effective dose [21] | Activity [22] | also measured
1 | O=C1NC(=O)C(c2ccccc2)(c2ccccc2)N1 | inactive | inactive | Active | Active | Active | inactive | Active | – | – | – | – | – | – | – | – | – | – | – | – | – | –
2 | CCC1(c2ccccc2)C(=O)NC(=O)NC1=O [PHENOBARBITAL] | – | – | – | – | – | inactive | – | 21.8 mg/kg | – | – | – | – | – | – | – | – | – | – | – | – | ED50 [9]: 13.2 mg/kg
3 | COc1ccccc1/C=N/Cc1cccnc1 | Active | inactive | Active | Active | Active | inactive | Active | 11.7 mg/kg | 300 mg/kg | 15 | 30 mg/kg | inactive | inactive | 300 mg/kg | 176 mg/kg | inactive | 30 mg/kg | – | – | – | Activity [16]: inactive
4 | Clc1ccc(/C=N/Cc2cccnc2)cc1 | inactive | inactive | inactive | Active | inactive | inactive | inactive | 53 mg/kg | 100 mg/kg | 2.35 | 100 mg/kg | inactive | – | – | 125 mg/kg | inactive | 100 mg/kg | 300 mg/kg | 100 mg/kg | Non-toxic | –
5 | Clc1ccccc1/C=N/Cc1cccnc1 | Active | inactive | Active | Active | Active | – | Active | 11.7 mg/kg | 300 mg/kg | 17.3 | 30 mg/kg | inactive | – | – | 202 mg/kg | inactive | 30 mg/kg | 100 mg/kg | 100 mg/kg | Non-toxic | ED50 [23]: 93.6 mg/kg
6 | C/C(=N\Cc1cccnc1)c1cccc(N)c1 | Active | inactive | Active | Active | Active | inactive | Active | 8.64 mg/kg | 100 mg/kg | 6.97 | 30 mg/kg | inactive | – | 100 mg/kg | 60.2 mg/kg | inactive | 30 mg/kg | 100 mg/kg | 30 mg/kg | – | –
7 | C/C(=N\Cc1cccnc1)c1ccccc1 | inactive | – | Active | Active | inactive | inactive | Active | 55.7 mg/kg | – | > 10 | 100 mg/kg | – | inactive | – | > 500 mg/kg | – | 30 mg/kg | – | – | Non-toxic | minimal effective dose [24]: 30 mg/kg; Activity [25]: Non-toxic; Activity [16]: inactive; minimal effective dose [26]: 30 mg/kg; ED50 [9]: 23.2 mg/kg
8 | COc1cc(/C=N/Cc2cccnc2)ccc1O | inactive | – | Active | Active | inactive | – | Active | 53 mg/kg | 300 mg/kg | 3.31 | 100 mg/kg | – | – | – | 176 mg/kg | – | 30 mg/kg | 30 mg/kg | 30 mg/kg | Non-toxic | minimal effective dose [24]: 30 mg/kg; ED50 [23]: 14.2 mg/kg; minimal effective dose [26]: 30 mg/kg; ED50 [9]: 6.44 mg/kg
9 | C(=C\c1ccccc1)/C=N/Cc1cccnc1 | Active | inactive | inactive | inactive | inactive | inactive | inactive | 36.3 mg/kg | 100 mg/kg | 2.34 | 30 mg/kg | inactive | inactive | 100 mg/kg | 84.8 mg/kg | inactive | 300 mg/kg | – | – | – | Activity [16]: inactive
10 | COc1cc(/C=N/Cc2cccnc2)cc(OC)c1OC | inactive | inactive | inactive | Active | inactive | – | Active | 71.7 mg/kg | – | > 10 | 100 mg/kg | inactive | – | – | > 500 mg/kg | inactive | 100 mg/kg | 30 mg/kg | 100 mg/kg | Non-toxic | ED50 [23]: 50.3 mg/kg; Activity [25]: Non-toxic
11 | C(=N\Cc1cccnc1)/c1ccccc1 | inactive | inactive | Active | Active | inactive | – | Active | 53 mg/kg | 100 mg/kg | 2.1 | 100 mg/kg | inactive | – | 100 mg/kg | 112 mg/kg | inactive | 30 mg/kg | 100 mg/kg | 100 mg/kg | – | ED50 [23]: 62.4 mg/kg
12 | c1ccc(C(=NCc2cccnc2)c2ccccc2)cc1 | Active | inactive | Active | Active | Active | inactive | inactive | 9.13 mg/kg | – | > 10 | 30 mg/kg | inactive | inactive | – | > 500 mg/kg | inactive | 30 mg/kg | – | – | Non-toxic | Activity [25]: Non-toxic; Activity [16]: inactive
13 | COc1ccc(/C=N/Cc2cccnc2)cc1O | Active | inactive | Active | Active | Active | inactive | Active | 6.39 mg/kg | 300 mg/kg | 31 | 30 mg/kg | inactive | – | 100 mg/kg | 198 mg/kg | inactive | 30 mg/kg | 300 mg/kg | 100 mg/kg | – | –
14 | OC(/C(=N\Cc1cccnc1)c1ccccc1)c1ccccc1 (stereo unspecified) | Active | inactive | Active | inactive | Active | – | Active | 20.8 mg/kg | 30 mg/kg | 0.57 | 30 mg/kg | inactive | inactive | 30 mg/kg | 11.9 mg/kg | – | 30 mg/kg | – | 100 mg/kg | – | minimal effective dose [24]: 300 mg/kg; ED50 [23]: 106 mg/kg
